Results on nine compounds are retold here after patent publication US20140135310A1, “SULPHONAMIDE DERIVATIVES OF ALICYCLIC AMINES FOR THE TREATMENT OF CENTRAL NERVOUS SYSTEM DISEASES” (Adamed Sp. z o.o., priority 2011, published 2014).

For assay [1], the target named is T1, serotonin transporter (SERT) (Homo sapiens, UniProt P31645).
T1 construct: expressed in transfected cells; host or cells: CHO cells
In words: Radioligand binding assay, serotonin transporter (SERT). Particulars: binding assay, test compound 1×10^−6 M. In short, it runs like this: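 Values are derived from competition curves fitted by the Hill equation to give IC50, then converted to Ki by Cheng-Prusoff with radioligand Kd from Scatchard analysis. Specific binding equals total minus non-specific (excess cold ligand), counted by scintillation, and is also expressed as percent inhibition of control.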

Assay [2] has as its target dopaminergic receptors D3 (Homo sapiens, UniProt P35462). In words: Radioligand binding assay, dopaminergic D3 receptors. Particulars: test compound 1×10^−6 M. Put shortly:
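Scintillation read-out. Specific = total − nonspecific (excess cold ligand). Data as % of control specific binding / % inhibition; IC50 by Hill fit; Ki = IC50/(1+L/KD), KD from Scatchard plot.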

For assay [3], the target named is T2, 5-HT2A receptor (Homo sapiens, UniProt P28223).
T2 construct: purchased PerkinElmer
T2 sequence (P28223 whole entry): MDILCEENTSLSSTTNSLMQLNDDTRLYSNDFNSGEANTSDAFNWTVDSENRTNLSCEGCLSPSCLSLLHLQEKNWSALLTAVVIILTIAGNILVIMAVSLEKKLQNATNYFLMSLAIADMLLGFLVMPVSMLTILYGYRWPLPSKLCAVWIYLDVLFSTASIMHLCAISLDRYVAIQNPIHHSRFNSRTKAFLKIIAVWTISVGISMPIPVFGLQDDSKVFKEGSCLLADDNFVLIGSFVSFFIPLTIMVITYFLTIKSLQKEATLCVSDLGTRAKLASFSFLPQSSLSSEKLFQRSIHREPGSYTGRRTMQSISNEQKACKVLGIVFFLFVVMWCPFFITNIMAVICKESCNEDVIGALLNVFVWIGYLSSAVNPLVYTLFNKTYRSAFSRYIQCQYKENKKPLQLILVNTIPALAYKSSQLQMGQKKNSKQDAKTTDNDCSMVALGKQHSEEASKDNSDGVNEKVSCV
In words: Radioligand binding assay, serotoninergic 5-HT2A receptors. Particulars: for Ki: read-out: Inhibition constants Ki, 5-HT2A. Put shortly: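 Competition curves from scintillation-counted specific binding (total minus binding with excess unlabelled ligand) were Hill-fitted to give IC50, converted to Ki via Cheng-Prusoff using Scatchard-derived Kd.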

The target in assay [4] is dopaminergic receptors D2 (Homo sapiens, UniProt P14416). Put plainly: Radioligand binding assay, dopaminergic D2 receptors. Particulars: for Ki: read-out: Inhibition constants Ki for D2 receptors, D2. In short, it runs like this: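 Values derive from competition curves: percent inhibition of control specific binding was fitted by Hill non-linear regression for IC50, and Ki calculated with Cheng–Prusoff from radioligand concentration and KD (Scatchard). Bound ligand was detected by scintillation counting.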
Chain of dopaminergic receptors D2 (P14416 whole entry): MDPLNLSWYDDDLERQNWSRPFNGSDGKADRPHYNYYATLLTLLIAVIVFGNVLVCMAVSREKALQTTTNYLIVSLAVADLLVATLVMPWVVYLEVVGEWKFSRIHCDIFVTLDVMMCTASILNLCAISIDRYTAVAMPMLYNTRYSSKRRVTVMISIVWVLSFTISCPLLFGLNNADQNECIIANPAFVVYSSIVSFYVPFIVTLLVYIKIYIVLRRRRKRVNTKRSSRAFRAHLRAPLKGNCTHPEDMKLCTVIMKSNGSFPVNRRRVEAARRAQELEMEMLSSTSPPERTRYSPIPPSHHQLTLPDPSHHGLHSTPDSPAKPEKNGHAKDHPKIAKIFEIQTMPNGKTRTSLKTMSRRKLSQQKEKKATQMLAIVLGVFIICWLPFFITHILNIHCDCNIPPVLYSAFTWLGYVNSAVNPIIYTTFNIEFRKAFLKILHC

The target in assay [5] is T3, M3 muscarinic receptors (Homo sapiens, UniProt P20309).
T3 construct: expressed in transfected cells; host or cells: CHO cells
T3 sequence (P20309 whole entry): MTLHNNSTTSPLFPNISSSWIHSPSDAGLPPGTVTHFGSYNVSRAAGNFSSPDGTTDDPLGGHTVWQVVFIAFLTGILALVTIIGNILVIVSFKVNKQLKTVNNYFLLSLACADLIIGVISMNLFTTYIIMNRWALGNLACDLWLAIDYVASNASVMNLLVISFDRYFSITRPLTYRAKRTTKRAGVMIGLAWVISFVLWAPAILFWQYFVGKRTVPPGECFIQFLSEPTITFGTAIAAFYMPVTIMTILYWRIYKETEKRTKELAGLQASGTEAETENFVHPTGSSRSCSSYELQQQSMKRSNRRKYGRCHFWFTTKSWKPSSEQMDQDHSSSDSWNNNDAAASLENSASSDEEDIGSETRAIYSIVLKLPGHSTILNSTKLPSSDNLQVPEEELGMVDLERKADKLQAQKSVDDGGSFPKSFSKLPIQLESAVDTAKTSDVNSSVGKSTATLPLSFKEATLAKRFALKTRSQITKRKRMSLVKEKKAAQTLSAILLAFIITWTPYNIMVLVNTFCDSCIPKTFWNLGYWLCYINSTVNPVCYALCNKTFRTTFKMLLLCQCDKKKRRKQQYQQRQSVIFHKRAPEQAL
In words: Radioligand binding assay, muscarinic M3 receptors. Particulars: test compound 1×10^−6 M. An excerpt: (§1) The specific ligand binding to the receptors is defined as the difference between the total binding and the non-specific binding determined in the presence of the excess of unlabelled ligand.
(§2) The results are expressed as a percent of control specific binding ((measured specific binding/control specific binding)×100) and as a percent inhibition of control specific binding (100−((measured specific binding/control specific binding)×100)) obtained in the presence of the test compounds. The specific ligand binding to the receptors is defined as the difference between the total binding and the nonspecific binding determined in the presence of an excess of unlabelled ligand. Scintillation counting was the method of detection of ligand binding. The IC50 values (concentration causing a half-maximal inhibition of control specific binding) were determined by non-linear regression analysis of the competition curves generated with mean replicate values using Hill equation curve fitting (Y=D+[(A−D)/(1+(C/C50)nH)], where Y=specific binding, D=minimum specific binding, A=maximum specific binding, C=compound concentration, C50=IC50, and nH=slope factor). This analysis was performed using a software developed at Cerep (Hill software) and validated by comparison with data generated by the commercial software SigmaPlot® 4.0 for Windows® (© 1997 by SPSS Inc.). The inhibition constants (Ki) were calculated using the Cheng Prusoff equation (Ki=IC50/(1+(L/KD)), where L=concentration of radioligand in the assay, and KD=affinity of the radioligand for the receptor). A scatchard plot was used to determine the Kd.
Experimental conditions for tests are given in Table 10, and results of tests for representative compounds are given in Table 11.

Assay [6] deals with T4, 5-HT2C receptor (Homo sapiens, UniProt P28335).
T4 construct: expressed in transfected cells; host or cells: HEK-293 cells
T4 sequence (P28335 33-458): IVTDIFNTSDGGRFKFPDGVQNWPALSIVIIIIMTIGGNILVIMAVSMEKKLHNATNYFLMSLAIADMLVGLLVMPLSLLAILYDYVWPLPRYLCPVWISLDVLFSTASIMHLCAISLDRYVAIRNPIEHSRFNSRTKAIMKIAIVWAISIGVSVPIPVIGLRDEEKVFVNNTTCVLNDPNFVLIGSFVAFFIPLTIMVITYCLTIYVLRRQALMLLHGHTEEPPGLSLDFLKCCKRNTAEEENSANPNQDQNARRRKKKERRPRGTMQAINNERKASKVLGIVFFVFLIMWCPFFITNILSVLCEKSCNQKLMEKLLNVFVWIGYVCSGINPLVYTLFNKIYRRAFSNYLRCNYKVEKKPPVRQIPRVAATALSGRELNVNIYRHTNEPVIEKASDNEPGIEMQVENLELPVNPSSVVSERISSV
In words: Radioligand binding assay, serotoninergic 5-HT2C receptors. Particulars: test compound 1×10^−6 M.
Source text: as §1, §2
Experimental conditions for tests are given in Table 4, and results of tests for representative compounds of the invention are given in Table 5a and 5b (receptors 5-HT1A, 5-HT2A, 5-HT6 and 5-HT7) and in Table 6 (receptors 5-HT2C).

The target in assay [7] is T5, H1 histaminergic receptors (Homo sapiens, UniProt P35367).
T5 construct: expressed in transfected cells; host or cells: HEK-293 cells
T5 sequence (P35367 whole entry): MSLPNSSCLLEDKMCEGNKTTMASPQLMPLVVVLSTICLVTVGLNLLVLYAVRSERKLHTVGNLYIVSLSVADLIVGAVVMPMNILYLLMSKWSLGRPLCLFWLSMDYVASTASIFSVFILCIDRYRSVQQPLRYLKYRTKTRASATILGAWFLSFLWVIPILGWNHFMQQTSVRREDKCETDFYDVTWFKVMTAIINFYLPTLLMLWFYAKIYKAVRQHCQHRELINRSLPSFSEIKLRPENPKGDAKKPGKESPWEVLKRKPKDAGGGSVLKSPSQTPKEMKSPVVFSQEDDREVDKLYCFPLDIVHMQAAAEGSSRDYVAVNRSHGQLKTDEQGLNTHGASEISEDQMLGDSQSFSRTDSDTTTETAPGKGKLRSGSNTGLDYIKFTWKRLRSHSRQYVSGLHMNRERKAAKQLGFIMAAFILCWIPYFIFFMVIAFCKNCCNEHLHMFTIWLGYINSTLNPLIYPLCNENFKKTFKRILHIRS
Put plainly: Radioligand binding assay, histaminergic H1 receptors. Particulars: human recombinant (HEK-293 cells), [3H]pyrilamine 1 nM.
Source text: as §1, §2
Experimental conditions for tests are given in Table 14, and results of tests for representative compounds are presented in Table 15.

The target in assay [8] is T6, 5-HT1A receptor (rat hippocampus) (Rattus norvegicus, UniProt P19327).
T6 construct: hippocampus; from tissue; host or cells: rat hippocampus
T6 sequence (P19327 1-422): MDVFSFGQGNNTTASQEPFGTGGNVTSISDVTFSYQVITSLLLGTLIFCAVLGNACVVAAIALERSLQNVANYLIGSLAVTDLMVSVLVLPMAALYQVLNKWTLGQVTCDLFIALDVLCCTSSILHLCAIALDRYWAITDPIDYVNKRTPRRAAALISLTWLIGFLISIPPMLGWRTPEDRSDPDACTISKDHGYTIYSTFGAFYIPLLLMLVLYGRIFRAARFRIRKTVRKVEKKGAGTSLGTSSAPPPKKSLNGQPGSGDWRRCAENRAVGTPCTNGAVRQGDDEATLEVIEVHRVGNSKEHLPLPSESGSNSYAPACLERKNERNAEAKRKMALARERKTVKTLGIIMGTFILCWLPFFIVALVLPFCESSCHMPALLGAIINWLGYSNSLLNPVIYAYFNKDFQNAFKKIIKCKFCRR
Put plainly: Radioligand binding assay, serotoninergic 5-HT1A receptors.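 Further: test compound at 1 µM.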 Particulars: binding assay result in %, Table 5a.

The test system of assay [9] is α1 adrenergic receptors (rat cerebral cortex). Put plainly: Radioligand binding assay, adrenergic α1 receptors. Particulars: test compound 1×10^−6 M. Put shortly: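 Values derive from radioligand displacement, with non-specific binding defined by excess cold ligand and detection by scintillation. Hill-fit IC50s were converted to Ki via Cheng-Prusoff using Scatchard-derived Kd; percent inhibition of control specific binding also reported.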

The mark [10] stands for this setting: binding assay result in %, Table 5a.
Setting [11] is: binding assay, test compound 1×10^−6 M.

Molecules are shown by their SMILES.

What is called Ki is the dissociation constant of the complex between target and ligand, obtained from inhibition or displacement. By inhibition is commonly meant the drop in the measured response relative to a control, in per cent.

Chain of dopaminergic receptors D3 (P35462 whole entry): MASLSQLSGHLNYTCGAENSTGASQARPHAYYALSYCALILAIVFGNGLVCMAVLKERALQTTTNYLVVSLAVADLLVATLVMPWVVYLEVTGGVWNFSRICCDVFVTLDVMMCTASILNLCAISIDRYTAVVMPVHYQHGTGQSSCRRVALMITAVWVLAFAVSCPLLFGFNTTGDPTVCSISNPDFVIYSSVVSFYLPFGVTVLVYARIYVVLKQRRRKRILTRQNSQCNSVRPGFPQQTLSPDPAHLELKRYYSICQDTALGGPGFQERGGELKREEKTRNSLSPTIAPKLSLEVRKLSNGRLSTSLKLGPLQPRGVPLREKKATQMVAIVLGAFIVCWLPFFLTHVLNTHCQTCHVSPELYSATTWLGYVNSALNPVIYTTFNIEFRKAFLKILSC
T1 sequence (P31645 whole entry): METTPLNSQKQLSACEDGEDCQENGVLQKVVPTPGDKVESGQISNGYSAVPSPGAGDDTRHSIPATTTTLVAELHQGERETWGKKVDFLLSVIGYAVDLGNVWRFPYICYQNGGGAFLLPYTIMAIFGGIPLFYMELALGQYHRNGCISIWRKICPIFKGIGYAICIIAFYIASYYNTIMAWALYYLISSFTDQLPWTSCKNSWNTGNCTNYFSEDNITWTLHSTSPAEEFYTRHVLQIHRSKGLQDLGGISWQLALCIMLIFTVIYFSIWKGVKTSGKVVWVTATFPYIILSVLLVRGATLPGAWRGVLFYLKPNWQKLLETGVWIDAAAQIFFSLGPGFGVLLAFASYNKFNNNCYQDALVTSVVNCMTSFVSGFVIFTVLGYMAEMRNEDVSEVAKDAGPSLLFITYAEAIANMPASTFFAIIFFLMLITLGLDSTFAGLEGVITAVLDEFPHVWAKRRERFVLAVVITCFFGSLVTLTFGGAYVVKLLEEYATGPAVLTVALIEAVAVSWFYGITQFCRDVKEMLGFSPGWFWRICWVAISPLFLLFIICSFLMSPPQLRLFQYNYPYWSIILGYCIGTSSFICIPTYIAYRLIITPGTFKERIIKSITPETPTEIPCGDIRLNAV

In the case of `O=S(=O)(NCC1CN(CCCc2noc3cc(F)ccc23)C1)c1cc2ccccc2s1` [Compound 127, N-[[1-[3-(6-Fluoro-1,2-benzoxazol-3-yl)propyl]azetidin-3-yl]methyl]benzo-thiophene-2-sulphonamide], in [1], the “SERT [%]” value was determined as 49%. Also, the “D3 [%]” value in [2] came out at 79%. The “5-HT2A [%]” value in assay [3] (setting [10]) is recorded as 99%. Also, the inhibition constant (Ki) in assay [3] was determined as 4.2 nM; in assay [4], 22 nM. In assay [4] (setting [11]), the “D2 [%]” value is given as 95%. Also, the inhibition at 1 µM was 1% in assay [5], 84% in [6] and 54% in [7]. In addition, the “5-HT1A [%]” value in [8] was determined as 71%. For the same compound, the “α1 [%]” value in [9] came out at 93%.

For the compound `COc1cccc(S(=O)(=O)NCC2CN(CCCc3noc4cc(F)ccc34)C2)c1` [Compound 143, N-[[1-[3-(6-Fluoro-1,2-benzoxazol-3-yl)propyl]azetidin-3-yl]methyl]-3-methoxy-benzenesulphonamide], the inhibition at 1 µM in assay [1] is 6%; in assay [2], 46%; in assay [3] (setting [10]) it was 94%; in assay [4] (setting [11]) it was 80%; in assay [5], -4%; in assay [6], 68%. In addition, the inhibition at 1 µM in assay [7] amounted to 36%; in assay [8], 44%. Also, in assay [9], the “α1 [%]” value amounted to 97%.

On to `O=S(=O)(N[C@@H]1CCN(CCCc2noc3cc(F)ccc23)C1)c1ccc2cc(Cl)ccc2c1` [Compound 200, 6-Chloro-N-[(3R)-1-[3-(6-fluoro-1,2-benzoxazol-3-yl)propyl]pyrrolidin-3-yl]naphthalene-2-sulphonamide], for which the inhibition at 1 µM in [1] was 74%; in [2], 94%; in assay [3] (setting [10]) it was 99%; in [4] (setting [11]) it was 100%; in [5] it was 3%; in [6], 77%. In assay [8], the inhibition at 1 µM was found to be 50%. The inhibition constant Ki turned out to be 2.3 nM in assay [3] and 0.1 nM in assay [4]. For the same compound, the “α1 [%]” value in assay [9] was determined as 85%.

For `Cc1c(S(=O)(=O)N[C@@H]2CCN(CCCc3noc4cc(F)ccc34)C2)sc2ccc(F)cc12` [Compound 202, 5-Fluoro-N-[(3R)-1-[3-(6-fluoro-1,2-benzoxazol-3-yl)propyl]pyrrolidin-3-yl]-3-methyl-benzothiophene-2-sulphonamide], the inhibition at 1 µM in [1] was 58%; in [2] it was 96%; in [3] (setting [10]) it was 99%; in assay [4] (setting [11]), 101%; in assay [5] it was 9%; in assay [6], 88%. Besides, the inhibition at 1 µM in assay [8] came to 65%. Further, the values for the inhibitory constant (Ki) in assay [3] and in assay [4] were 1.4 nM and 1.2 nM, respectively. Moreover, the “α1 [%]” value in [9] is 98%.

For the compound `O=S(=O)(N[C@@H]1CCN(CCCc2noc3cc(F)ccc23)C1)c1ccc2ccccc2c1` [Compound 206, N-[(3R)-1-[3-(6-Fluoro-1,2-benzoxazol-3-yl)propyl]pyrrolidin-3-yl]naphthalene-2-sulphonamide], the inhibition at 1 µM is 62% in [1]; 95% in [2]; 100% in assay [3] (setting [10]); 101% in assay [4] (setting [11]); 9% in assay [5]; 84% in assay [6]. Besides, the inhibition at 1 µM in assay [8] came to 68%. Moreover, the Ki in assay [3] was 0.7 nM; in assay [4] it was 0.3 nM. The “α1 [%]” value in assay [9] is 93%.

Turning to `O=S(=O)(N[C@H]1CCN(CCCc2noc3cc(F)ccc23)C1)c1ccc2ccccc2c1` [Compound 207, N-[(3S)-1-[3-(6-Fluoro-1,2-benzoxazol-3-yl)propyl]pyrrolidin-3-yl]-naphthalene-2-sulphonamide], the inhibition at 1 µM came out at 58% in assay [1]; 85% in [2]; 100% in [3] (setting [10]); 101% in assay [4] (setting [11]); 12% in assay [5]; 65% in assay [7]. Also, the inhibition at 1 µM in assay [8] is 58%. The Ki in [3] is 0.5 nM; in assay [4] it was 3.8 nM. Moreover, the “α1 [%]” value in [9] was found to be 95%.

On to `Cn1ccc2cc(S(=O)(=O)NC3CCN(CCCc4noc5cc(F)ccc45)C3)ccc21` (centres unmarked) [Compound 218, N-[1-[3-(6-Fluoro-1,2-benzoxazol-3-yl)propyl]pyrrolidin-3-yl]-1-methyl-indole-5-sulphonamide], for which the inhibition at 1 µM in [1] came to 95%; in [2], 95%; in [3] (setting [10]) it was 100%; in assay [4] (setting [11]), 99%; in assay [5], 0%; in [6], 82%. Moreover, the figures for the inhibition at 1 µM in assay [7] and in [8] were 77% and 91%, respectively.

As to `Cc1ccc2sc(S(=O)(=O)N[C@@H]3CCN(CCCc4noc5cc(F)ccc45)C3)cc2c1` [Compound 228, N-[(3R)-1-[3-(6-Fluoro-1,2-benzoxazol-3-yl)propyl]pyrrolidin-3-yl]-5-methyl-benzothiophene-2-sulphonamide], the inhibition at 1 µM in [1] was 61%; in [2] it was 97%; in assay [4] (setting [11]), 100%; in assay [5] it was 12%; in assay [6] it was 91%; in assay [8], 27%. For the same compound, the Ki in assay [3] was determined as 1 nM; in assay [4] it was 0.7 nM. Also, in assay [9], the “α1 [%]” value came out at 88%.

Consider `Cc1ccc2sc(S(=O)(=O)N[C@H]3CCN(CCCc4noc5cc(F)ccc45)C3)cc2c1` [Compound 229, N-[(3S)-1-[3-(6-Fluoro-1,2-benzoxazol-3-yl)propyl]pyrrolidin-3-yl]-5-methylbenzothiophene-2-sulphonamide], for which the inhibition at 1 µM in assay [1] was 50%; in assay [2] it was 93%; in assay [4] (setting [11]), 101%; in assay [5], 15%; in assay [7], 75%; in [8], 46%. Besides, the values for the inhibitory constant (Ki) in assay [3] and in [4] were 0.6 nM and 2.4 nM, respectively. Moreover, in [9], the “α1 [%]” value is reported as 89%.
